The values below come from patent publication US20090012595A1, “Therapeutic Drug-Eluting Endoluminal Covering” (priority 2003, published 2009).

The data set can be described thus: Paclitaxel release from films into octanol/PBS or octanol/water, 232 nm. The conditions noted are these: PBS versus water, 0, 4 and 72 hours, 37° C., continuous shaking. The data set is classed as physicochemical.

Description: Paclitaxel release—Small samples (circular discs, 8 mm) of the Paclitaxel films were placed in a solution of octanol and phosphate buffered saline (PBS) or water at a proportion of 5 ml Octanol and 10 ml PBS (or water). The solution, including the film disc, was shaken continuously at 37° C. for several days. The amount of Paclitaxel in the octanol phase of the solution was measured using a spectrophotometer at 232 nm. Measurements were carried out periodically and the amount of drug released was normalized to baseline values for control films containing no drug.

With `CC(=O)O[C@H]1C(=O)[C@@]2(C)[C@H]([C@H](OC(=O)c3ccccc3)[C@]3(O)C[C@H](OC(=O)[C@H](O)[C@@H](NC(=O)c4ccccc4)c4ccccc4)C(C)=C1C3(C)C)[C@]1(OC(C)=O)CO[C@@H]1C[C@@H]2O` [paclitaxel], the “Profile of drug release from films” value is “significantly faster than in water”.
